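Exposure lasted 48 hours, with cells grown in 96-well plates and compounds tested at five concentrations. GI50 = concentration required for 50% inhibition of growth.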 Active and inactive are the calls of the source. No stated cut-off is given here; in the data, active = GI50 up to about 1.1 µM and inactive = higher.
Columns and labels:
Test in all cases: NCI tumour cell line growth inhibition, 48 h
NCI-H226 = tested on: NCI-H226
NCI-H23 = tested on: NCI-H23
KM12 = tested on: KM12
A549 = tested on: A549
SNB-19 = tested on: SNB-19
SK-MEL-5 = tested on: SK-MEL-5
HCT-116 = tested on: HCT-116
CAKI-1 = tested on: CAKI-1
UACC-62 = tested on: UACC-62
LOX IMVI = tested on: LOX IMVI
HCT-15 = tested on: HCT-15
M14 = tested on: M14
K562 = tested on: K562
MOLT-4 = tested on: MOLT-4
HCC 2998 = tested on: HCC 2998
OVCAR-5 = tested on: OVCAR-5
CCRF-CEM = tested on: CCRF-CEM

SMILES	GI50 (NCI-H226)	GI50 (NCI-H23)	GI50 (KM12)	GI50 (A549)	GI50 (SNB-19)	GI50 (SK-MEL-5)	GI50 (HCT-116)	GI50 (CAKI-1)	GI50 (UACC-62)	GI50 (LOX IMVI)	GI50 (HCT-15) [µM]	GI50 (M14)	GI50 (K562)	GI50 (MOLT-4)	GI50 (HCC 2998)	GI50 (OVCAR-5)	GI50 (CCRF-CEM)
CN(C)CCNC(=O)c1ccc(Cl)c2c(Nc3ccc(S(N)(=O)=O)cc3)c3ccccc3nc12	1.45 µM (inactive)	2.97 µM (inactive)	1.39 µM (inactive)	2.64 µM (inactive)	1.84 µM (inactive)	2.49 µM (inactive)	0.29 µM (active)	4.54 µM (inactive)	1.56 µM (inactive)	0.594 µM (active)	2.84	2.34 µM (inactive)	0.612 µM (active)	0.198 µM (active)	3.03 µM (inactive)	2.95 µM (inactive)	
CCOC(=O)/C(=C/c1cccc(C#N)c1)N(CC)CC	> 100 µM (inactive)	> 100 µM (inactive)	> 100 µM (inactive)	> 100 µM (inactive)		> 100 µM (inactive)	> 100 µM (inactive)	> 100 µM (inactive)	> 100 µM (inactive)	> 100 µM (inactive)	> 100	> 100 µM (inactive)	> 100 µM (inactive)	> 100 µM (inactive)	> 100 µM (inactive)	> 100 µM (inactive)	> 100 µM (inactive)
N=C1NC2(O)C(=O)c3ccccc3C2(O)N1 (centres undefined)	> 100 µM (inactive)	> 100 µM (inactive)	> 100 µM (inactive)	> 100 µM (inactive)	> 100 µM (inactive)	> 100 µM (inactive)	> 100 µM (inactive)	> 100 µM (inactive)	> 100 µM (inactive)	> 100 µM (inactive)	> 100	> 100 µM (inactive)	> 100 µM (inactive)	> 100 µM (inactive)		> 100 µM (inactive)	> 100 µM (inactive)
O=C(c1ccc(Cl)cc1)N(C(=S)N1CCN(c2ccccn2)CC1)c1ccccc1	24.9 µM (inactive)	> 100 µM (inactive)	> 100 µM (inactive)	94.2 µM (inactive)	> 100 µM (inactive)	39.6 µM (inactive)	97.5 µM (inactive)	> 100 µM (inactive)	> 100 µM (inactive)	> 100 µM (inactive)	> 100	> 100 µM (inactive)	41.7 µM (inactive)	43.6 µM (inactive)		> 100 µM (inactive)	> 100 µM (inactive)
N#C/C(=C1\OC(=N)C(c2ccc(Cl)cc2Cl)C1=O)c1ccc(Cl)cc1Cl (centres undefined)	> 100 µM (inactive)	> 100 µM (inactive)		> 100 µM (inactive)	> 100 µM (inactive)	> 100 µM (inactive)	> 100 µM (inactive)	> 100 µM (inactive)	> 100 µM (inactive)	> 100 µM (inactive)	> 100	> 100 µM (inactive)	> 100 µM (inactive)	> 100 µM (inactive)		> 100 µM (inactive)	
CCc1ccc(Nc2ccc([N+](=O)[O-])cc2[N+](=O)[O-])cc1	34.2 µM (inactive)	71.1 µM (inactive)	52.5 µM (inactive)	40.9 µM (inactive)		38.6 µM (inactive)	36.7 µM (inactive)	39.1 µM (inactive)	56.6 µM (inactive)		96.4	> 100 µM (inactive)	29.8 µM (inactive)	19.1 µM (inactive)	> 100 µM (inactive)	> 100 µM (inactive)	35.2 µM (inactive)
C[C@]12CC(C#N)C(=O)C(O)=C1CC[C@@H]1C2CC[C@@]2(C)C1CC[C@@H]2O (some centres undefined)	27.6 µM (inactive)	35.6 µM (inactive)	> 100 µM (inactive)	47.5 µM (inactive)	83.4 µM (inactive)	26.3 µM (inactive)	41.1 µM (inactive)		3.99 µM (inactive)	27.4 µM (inactive)	48.6	65.5 µM (inactive)	46.9 µM (inactive)	40.7 µM (inactive)	> 100 µM (inactive)	27.3 µM (inactive)	45.1 µM (inactive)
COc1ccc(C2=NN(c3ccccc3)C[N+](c3ccc(C)cc3)=N2)cc1	55.3 µM (inactive)	41.3 µM (inactive)	> 10 µM (inactive)	59.7 µM (inactive)	34.1 µM (inactive)	> 10 µM (inactive)	35.1 µM (inactive)			32 µM (inactive)	51.2		14.6 µM (inactive)	19.8 µM (inactive)	> 100 µM (inactive)	29.9 µM (inactive)	19.3 µM (inactive)
c1cncc(C2c3[nH]c4ccccc4c3CCN2CCN2CCCCC2)c1 (centres undefined)		> 100 µM (inactive)	> 100 µM (inactive)	> 100 µM (inactive)	> 100 µM (inactive)	> 100 µM (inactive)	> 100 µM (inactive)	> 100 µM (inactive)	> 100 µM (inactive)	> 100 µM (inactive)	> 100	16.1 µM (inactive)	35.6 µM (inactive)	> 100 µM (inactive)	> 100 µM (inactive)	> 100 µM (inactive)	56.4 µM (inactive)
CC12CCC(=O)N1c1cccnc1N2 (centres undefined)	> 100 µM (inactive)	> 100 µM (inactive)	> 100 µM (inactive)	> 100 µM (inactive)		> 100 µM (inactive)		> 100 µM (inactive)	> 100 µM (inactive)	> 100 µM (inactive)	> 100	> 100 µM (inactive)	> 100 µM (inactive)	> 100 µM (inactive)	> 100 µM (inactive)	> 100 µM (inactive)	> 100 µM (inactive)
O=C1c2ccccc2C(=O)C2C3c4ccccc4C(c4ccccc43)C12 (centres undefined)	77.3 µM (inactive)	41.7 µM (inactive)	28.2 µM (inactive)	28.7 µM (inactive)	26.9 µM (inactive)		28.8 µM (inactive)		33 µM (inactive)	13.5 µM (inactive)	39	56.4 µM (inactive)	15.9 µM (inactive)	12.7 µM (inactive)	36.3 µM (inactive)		10.7 µM (inactive)
CCOC(=O)C(C(=O)OCC)S(C)(=O)=O	> 100 µM (inactive)	> 100 µM (inactive)	> 100 µM (inactive)	> 100 µM (inactive)	> 100 µM (inactive)	> 100 µM (inactive)	> 100 µM (inactive)		> 100 µM (inactive)	> 100 µM (inactive)		> 100 µM (inactive)	> 100 µM (inactive)	> 100 µM (inactive)	> 100 µM (inactive)	> 100 µM (inactive)	> 100 µM (inactive)
COC(=O)c1cc2cc(OC)c(OC)cc2cc(C(=O)OC)c1=O		> 100 µM (inactive)	> 100 µM (inactive)	> 100 µM (inactive)	> 100 µM (inactive)	> 100 µM (inactive)	> 100 µM (inactive)	> 100 µM (inactive)	> 100 µM (inactive)	87.3 µM (inactive)	> 100	> 100 µM (inactive)	> 100 µM (inactive)	> 100 µM (inactive)	> 100 µM (inactive)	> 100 µM (inactive)	> 100 µM (inactive)
